Source: ChEMBL document CHEMBL3046617, “Effects of fungicides on in vitro spore germination and mycelial growth of the phytopathogens Leptosphaeria maculans and L. biglobosa (phoma stem canker of oilseed rape)” (2010)
Values after ≈ are worked out from the molar mass of the structure shown. Active and inactive are the calls of the source. No cut-off for these calls is given here.

Key:
Plenodomus lingam [1] = experiment: Antifungal activity against Leptosphaeria maculans assessed as ascospore germination at 1 to 4 ug/ml after 22 hr; format: functional
Plenodomus biglobosus [2] = experiment: Antifungal activity against Leptosphaeria biglobosa assessed as viable conidia at 2 to 4 ug/ml after 1 week; format: functional, organism-based
Plenodomus lingam [3] = experiment: Antifungal activity against Leptosphaeria maculans assessed as reduction of germ tube length at 2 ug/ml after 22 hr relative to control; format: functional; set-up: scale not given: the % may be the effect or the level left
Plenodomus lingam [4] = experiment: Antifungal activity against Leptosphaeria maculans assessed as inhibition of conidia germination at 4 ug/ml after 22 hr; format: functional
Plenodomus lingam [5] = experiment: Antifungal activity against Leptosphaeria maculans assessed as reduction of germ tube length at 1 ug/ml after 22 hr relative to control; format: functional; set-up: scale not given: the % may be the effect or the level left
Plenodomus lingam [6] = experiment: Antifungal activity against Leptosphaeria maculans assessed as reduction of germ tube length at 4 ug/ml after 22 hr relative to control; format: functional; set-up: scale not given: the % may be the effect or the level left
Plenodomus biglobosus [7] = experiment: Antifungal activity against Leptosphaeria biglobosa assessed as reduction of germ tube length at 1 ug/ml after 22 hr relative to control; format: functional; set-up: scale not given: the % may be the effect or the level left
Plenodomus lingam [8] = experiment: Antifungal activity against Leptosphaeria maculans assessed as viable ascospore at 1 to 4 ug/ml after 1 week; format: functional, organism-based
Plenodomus biglobosus [9] = experiment: Antifungal activity against Leptosphaeria biglobosa assessed as reduction of germ tube length at 4 ug/ml after 22 hr relative to control; format: functional; set-up: scale not given: the % may be the effect or the level left
Plenodomus biglobosus [10] = experiment: Antifungal activity against Leptosphaeria biglobosa assessed as reduction of conidia production at 1 to 4 ug/ml after 2 weeks; format: functional, organism-based
Plenodomus biglobosus [11] = experiment: Antifungal activity against Leptosphaeria biglobosa assessed as viable ascospore at 1 to 4 ug/ml after 1 week; format: functional, organism-based
Plenodomus biglobosus [12] = experiment: Antifungal activity against Leptosphaeria biglobosa assessed as reduction of germ tube length at 2 ug/ml after 22 hr relative to control; format: functional; set-up: scale not given: the % may be the effect or the level left
Plenodomus biglobosus [13] = experiment: Antifungal activity against Leptosphaeria biglobosa assessed as ascospore germination at 1 to 4 ug/ml after 22 hr; format: functional
Plenodomus biglobosus [14] = experiment: Antifungal activity against Leptosphaeria biglobosa assessed as inhibition of conidia germination at 4 ug/ml after 22 hr; format: functional
Plenodomus lingam [15] = experiment: Antifungal activity against Leptosphaeria maculans assessed as reduction of conidia production at 1 to 4 ug/ml after 2 weeks; format: functional, organism-based
Plenodomus lingam [16] = experiment: Antifungal activity against Leptosphaeria maculans assessed as viable conidia at 2 to 4 ug/ml after 1 week; format: functional, organism-based
Plenodomus lingam [17] = experiment: Antifungal activity against Leptosphaeria maculans assessed as viable conidia at 0.25 to 1 ug/ml after 1 week; format: functional, organism-based
Plenodomus lingam [18] = experiment: Antifungal activity against Leptosphaeria maculans assessed as inhibition of conidia germination at 0.25 to 1 ug/ml after 22 hr; format: functional, organism-based
Plenodomus lingam [19] = experiment: Antifungal activity against Leptosphaeria maculans assessed as inhibition of mycelial growth after 17 days; format: functional; conditions: 408 h, read-out: ED50 (the source's name)
Plenodomus biglobosus [20] = experiment: Antifungal activity against Leptosphaeria biglobosa assessed as inhibition of mycelial growth after 7 days; format: functional; conditions: 168 h, read-out: ED50 (the source's name)
Plenodomus lingam [21] = experiment: Antifungal activity against Leptosphaeria maculans assessed as reduction of germ tube length at 0.5 ug/ml after 22 hr relative to control; format: functional; set-up: scale not given: the % may be the effect or the level left
Plenodomus lingam [22] = experiment: Antifungal activity against Leptosphaeria maculans assessed as viable ascospore at 0.25 to 1 ug/ml after 1 week; format: functional, organism-based
Plenodomus biglobosus [23] = experiment: Antifungal activity against Leptosphaeria biglobosa assessed as viable ascospore at 0.25 to 1 ug/ml after 1 week; format: functional, organism-based
Plenodomus lingam [24] = experiment: Antifungal activity against Leptosphaeria maculans assessed as reduction of conidia production at 0.25 to 1 ug/ml after 2 weeks; format: functional, organism-based
Plenodomus biglobosus [25] = experiment: Antifungal activity against Leptosphaeria biglobosa assessed as inhibition of conidia germination at 0.25 to 1 ug/ml after 22 hr; format: functional, organism-based
Plenodomus biglobosus [26] = experiment: Antifungal activity against Leptosphaeria biglobosa assessed as reduction of germ tube length at 0.25 ug/ml after 22 hr relative to control; format: functional; set-up: scale not given: the % may be the effect or the level left
Plenodomus biglobosus [27] = experiment: Antifungal activity against Leptosphaeria biglobosa assessed as reduction of germ tube length at 0.5 ug/ml after 22 hr relative to control; format: functional; set-up: scale not given: the % may be the effect or the level left
Plenodomus biglobosus [28] = experiment: Antifungal activity against Leptosphaeria biglobosa assessed as reduction of conidia production at 0.25 to 1 ug/ml after 2 weeks; format: functional, organism-based
Plenodomus lingam [29] = experiment: Antifungal activity against Leptosphaeria maculans assessed as ascospore germination at 0.25 to 1 ug/ml after 22 hr; format: functional
Plenodomus biglobosus [30] = experiment: Antifungal activity against Leptosphaeria biglobosa assessed as viable conidia at 0.25 to 1 ug/ml after 1 week; format: functional, organism-based
Plenodomus biglobosus [31] = experiment: Antifungal activity against Leptosphaeria biglobosa assessed as ascospore germination at 0.25 to 1 ug/ml after 22 hr; format: functional
Plenodomus lingam [32] = experiment: Antifungal activity against Leptosphaeria maculans assessed as reduction of germ tube length at 0.25 ug/ml after 22 hr relative to control; format: functional; set-up: scale not given: the % may be the effect or the level left
Plenodomus biglobosus [33] = experiment: Antifungal activity against Leptosphaeria biglobosa assessed as inhibition of conidia germination at 0.75 to 3 ug/ml after 22 hr; format: functional, organism-based
Plenodomus lingam [34] = experiment: Antifungal activity against Leptosphaeria maculans assessed as viable conidia at 0.75 to 3 ug/ml after 1 week; format: functional, organism-based
Plenodomus lingam [35] = experiment: Antifungal activity against Leptosphaeria maculans assessed as reduction of germ tube length at 3 ug/ml after 22 hr relative to control; format: functional; set-up: scale not given: the % may be the effect or the level left
Plenodomus biglobosus [36] = experiment: Antifungal activity against Leptosphaeria biglobosa assessed as reduction of germ tube length at 1.5 ug/ml after 22 hr relative to control; format: functional; set-up: scale not given: the % may be the effect or the level left
Plenodomus lingam [37] = experiment: Antifungal activity against Leptosphaeria maculans assessed as reduction of conidia production at 0.75 to 3 ug/ml after 2 weeks; format: functional, organism-based
Plenodomus lingam [38] = experiment: Antifungal activity against Leptosphaeria maculans assessed as viable ascospore at 0.75 to 3 ug/ml after 1 week; format: functional, organism-based
Plenodomus lingam [39] = experiment: Antifungal activity against Leptosphaeria maculans assessed as ascospore germination at 0.75 to 3 ug/ml after 22 hr; format: functional
Plenodomus biglobosus [40] = experiment: Antifungal activity against Leptosphaeria biglobosa assessed as reduction of germ tube length at 3 ug/ml after 22 hr relative to control; format: functional; set-up: scale not given: the % may be the effect or the level left
Plenodomus lingam [41] = experiment: Antifungal activity against Leptosphaeria maculans assessed as inhibition of conidia germination at 0.75 to 3 ug/ml after 22 hr; format: functional, organism-based
Plenodomus biglobosus [42] = experiment: Antifungal activity against Leptosphaeria biglobosa assessed as reduction of conidia production at 0.75 to 3 ug/ml after 2 weeks; format: functional, organism-based
Plenodomus biglobosus [43] = experiment: Antifungal activity against Leptosphaeria biglobosa assessed as reduction of germ tube length at 0.75 ug/ml after 22 hr relative to control; format: functional; set-up: scale not given: the % may be the effect or the level left
Plenodomus lingam [44] = experiment: Antifungal activity against Leptosphaeria maculans assessed as reduction of germ tube length at 0.75 ug/ml after 22 hr relative to control; format: functional; set-up: scale not given: the % may be the effect or the level left
Plenodomus lingam [45] = experiment: Antifungal activity against Leptosphaeria maculans assessed as reduction of germ tube length at 1.5 ug/ml after 22 hr relative to control; format: functional; set-up: scale not given: the % may be the effect or the level left
Plenodomus biglobosus [46] = experiment: Antifungal activity against Leptosphaeria biglobosa assessed as viable conidia at 0.75 to 3 ug/ml after 1 week; format: functional, organism-based
Plenodomus biglobosus [47] = experiment: Antifungal activity against Leptosphaeria biglobosa assessed as ascospore germination at 0.75 to 3 ug/ml after 22 hr; format: functional
Plenodomus biglobosus [48] = experiment: Antifungal activity against Leptosphaeria biglobosa assessed as viable ascospore at 0.75 to 3 ug/ml after 1 week; format: functional, organism-based
Plenodomus lingam [49] = experiment: Antifungal activity against Leptosphaeria maculans; format: functional; conditions: read-out: ED50 (the source's name)

## CCCCNC(=O)n1c(NC(=O)OC)nc2ccccc21 [BENOMYL]
Plenodomus lingam [1]
  Activity: 96%
Plenodomus biglobosus [2]
  Activity: Active
Plenodomus lingam [3]
  Activity: 68.3%
Plenodomus lingam [4]
  inhibition at 4 µg/mL: > 80%
Plenodomus lingam [5]
  Activity: 46.8%
Plenodomus lingam [6]
  Activity: 65.8%
Plenodomus biglobosus [7]
  Activity: 4.5%
Plenodomus lingam [8]
  Activity: inactive
Plenodomus biglobosus [9]
  Activity: 81.6%
Plenodomus biglobosus [10]
  Activity: Active
Plenodomus biglobosus [11]
  Activity: inactive
Plenodomus biglobosus [12]
  Activity: 85.5%
Plenodomus biglobosus [13]
  Activity: 94%
Plenodomus biglobosus [14]
  inhibition at 4 µg/mL: 15%
Plenodomus lingam [15]
  Activity: inactive
Plenodomus lingam [16]
  Activity: Active

## C[Si](Cn1cncn1)(c1ccc(F)cc1)c1ccc(F)cc1 [FLUSILAZOLE]
Plenodomus lingam [17]
  Activity: inactive
Plenodomus lingam [18]
  inhibition: Active
Plenodomus lingam [19]
  EC50: 0.27 µg/mL (≈ 0.856 µM)
Plenodomus biglobosus [20]
  EC50: 0.67 µg/mL (≈ 2.12 µM)
Plenodomus lingam [21]
  Activity: 22.1%
Plenodomus lingam [22]
  Activity: inactive
Plenodomus lingam [5]
  Activity: 22.5%
Plenodomus biglobosus [23]
  Activity: inactive
Plenodomus lingam [24]
  Activity: inactive
Plenodomus biglobosus [25]
  inhibition: Active
Plenodomus biglobosus [7]
  Activity: 53.8%
Plenodomus biglobosus [26]
  Activity: 56.9%
Plenodomus biglobosus [27]
  Activity: 56.3%
Plenodomus biglobosus [28]
  Activity: Active
Plenodomus lingam [29]
  Activity: 96%
Plenodomus biglobosus [30]
  Activity: inactive
Plenodomus biglobosus [31]
  Activity: 94%
Plenodomus lingam [32]
  Activity: 15.9%

## CC(C)(C)C(O)(CCc1ccc(Cl)cc1)Cn1cncn1 (stereo not drawn) [TEBUCONAZOLE]
Plenodomus biglobosus [33]
  inhibition: Active
Plenodomus lingam [34]
  Activity: inactive
Plenodomus lingam [19]
  EC50: 0.34 µg/mL (≈ 1.1 µM)
Plenodomus lingam [35]
  Activity: 43.2%
Plenodomus biglobosus [20]
  EC50: 1.45 µg/mL (≈ 4.71 µM)
Plenodomus biglobosus [36]
  Activity: 63.4%
Plenodomus lingam [37]
  Activity: inactive
Plenodomus lingam [38]
  Activity: inactive
Plenodomus lingam [39]
  Activity: 96%
Plenodomus biglobosus [40]
  Activity: 69.6%
Plenodomus lingam [41]
  inhibition: Active
Plenodomus biglobosus [42]
  Activity: Active
Plenodomus biglobosus [43]
  Activity: 64.3%
Plenodomus lingam [44]
  Activity: 44%
Plenodomus lingam [45]
  Activity: 36.7%
Plenodomus biglobosus [46]
  Activity: inactive
Plenodomus biglobosus [47]
  Activity: 94%
Plenodomus biglobosus [48]
  Activity: inactive

## OC(Cn1cncn1)(c1ccc(F)cc1)c1ccccc1F (stereo not drawn) [FLUTRIAFOL]
Plenodomus lingam [49]
  EC50: 0.45 µg/mL (≈ 1.49 µM)
